Measurements published in US20210355106A1, “NEW AMINO-PYRIMIDONYL-PIPERIDINYL DERIVATIVES, A PROCESS FOR THEIR PREPARATION AND PHARMACEUTICAL COMPOSITIONS CONTAINING THEM” (LES LABORATOIRES SERVIER, priority 2018, published 2021).

Key:
USP7 = molecular target: T1, USP7 (Homo sapiens, UniProt Q93009, C315A); experiment: Inhibition of USP7 by Fluorescence Intensity (FLINT) readings, Ubiquitin-Rhodamine-110 substrate; assay type: biochemical; conditions: 0.25 nM His-His-USP7 (aa208-560), 60 minutes at 30° C. preincubation; Ki determined from IC50 according to Cer et al.
T1 construct: 0.25 nM His-His-USP7 (aa208-560, |C315A|) was incubated with compound; His-His (N)
Summary of the method: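 Kinetic rate of Rhodamine-110 release from ubiquitin substrate (50 nM or 4 μM), read every 3 min for 21 min, after 60 min, 30 °C preincubation of 0.25 nM USP7 catalytic domain C315A with compound. Bicine pH 8.0 buffer, 10% DMSO; 11-point IC50 vs DMSO and no-enzyme controls, converted to Ki.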

[1] = test system: Z138 mantle cell lymphoma tumour cell lines; experiment: In vitro cytotoxicity, MTT assay; assay type: cell-based; conditions: Z138 cells, exposed to the test compounds for 96 hours
Summary of the method: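 MTT viability read-out: after 96 hours of compound treatment, Z138 mantle cell lymphoma cells received MTT for 4 hours, and formazan production was quantified by absorbance at 540 nm.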

T1 sequence (Q93009 208-560 C315A): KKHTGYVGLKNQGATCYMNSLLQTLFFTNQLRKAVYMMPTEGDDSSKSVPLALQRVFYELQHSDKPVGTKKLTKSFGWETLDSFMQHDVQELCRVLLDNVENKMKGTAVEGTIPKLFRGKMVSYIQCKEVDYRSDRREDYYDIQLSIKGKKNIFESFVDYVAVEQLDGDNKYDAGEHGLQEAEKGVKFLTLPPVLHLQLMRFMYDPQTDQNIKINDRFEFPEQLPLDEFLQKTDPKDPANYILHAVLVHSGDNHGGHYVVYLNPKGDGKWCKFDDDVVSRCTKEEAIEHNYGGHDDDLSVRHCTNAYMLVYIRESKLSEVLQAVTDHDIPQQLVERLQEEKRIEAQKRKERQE

| SMILES | Ki (USP7) [nM] | IC50 ([1]; Homo sapiens, Z-138) [nM] | IC50 [1] [nM] |
| --- | --- | --- | --- |
| Cc1nc(-c2ccccc2)sc1C(=O)N1CC[C@@H](C(=O)N2CCC(O)(Cn3cnc(Oc4ccc(F)cc4)c(N)c3=O)CC2)[C@H](c2ccccc2)C1 [Example 66, 5-amino-6-(4-fluorophenoxy)-3-({4-hydroxy-1-[(3R,4R)-1-(4-methyl-2-phenyl-1,3-thiazole-5-carbonyl)-3-phenylpiperidine-4-carbonyl]piperidin-4-yl}methyl)pyrimidin-4(3H)-one] | 6.5 | 4.5 |  |
| Nc1c(Oc2ccc(F)cc2)ncn(CC2(O)CCN(C(=O)[C@@H]3CCN(C(=O)c4sc(Br)c5c4OCCO5)C[C@H]3c3ccccc3)CC2)c1=O [Example 67] | 14 |  | 27.8 |
| Nc1c(Oc2ccc(F)cc2)ncn(CC2(O)CCN(C(=O)[C@@H]3CCN(S(=O)(=O)c4cccc(Br)c4)C[C@H]3c3ccccc3)CC2)c1=O [Example 69, 5-amino-3-[[1-[(3R,4R)-1-(3-bromophenyl)sulfonyl-3-phenyl-piperidine-4-carbonyl]-4-hydroxy-4-piperidyl]methyl]-6-(4-fluorophenoxy)pyrimidin-4-one] | 18.1 | 21.7 |  |
| CN(C(=O)CN1CC[C@@H](C(=O)N2CCC(O)(Cn3cnc(Oc4ccc(F)cc4)c(N)c3=O)CC2)[C@H](c2ccccc2)C1)c1ccccc1 [Example 74] | 78 | 70 |  |
| Nc1c(Oc2ccc(F)cc2)ncn(CC2(O)CCN(C(=O)[C@@H]3CCN(C(=O)C(F)(F)c4ccccc4)C[C@H]3c3ccccc3)CC2)c1=O [Example 75, 5-amino-3-[[1-[(3R,4R)-1-(2,2-difluoro-2-phenyl-acetyl)-3-phenyl-piperidine-4-carbonyl]-4-hydroxy-4-piperidyl]methyl]-6-(4-fluorophenoxy)pyrimidin-4-one] | 39 | 43 |  |
| Nc1c(Oc2ccc(F)cc2)ncn(CC2(O)CCN(C(=O)[C@@H]3CCN(C(=O)Nc4ccccc4)C[C@H]3c3ccccc3)CC2)c1=O [Example 76, (3R,4R).4-[4-[[5-amino-4-(4-fluorophenoxy)-6-oxo-pyrimidin-1-yl]methyl]-4-hydroxy-piperidine-1-carbonyl]-N,3-diphenyl-piperidine-1-carboxamide] | 17 | 22 |  |
| Nc1c(Oc2ccc(F)cc2)ncn(CC2(O)CCN(C(=O)[C@@H]3CCN(C(=O)Nc4cccc(Br)c4)C[C@H]3c3ccccc3)CC2)c1=O [Example 83] | 42 | 8.5 |  |
| Nc1c(Oc2ccc(F)cc2)ncn(CC2(O)CCN(C(=O)[C@@H]3CCN(C(=O)Nc4nccs4)C[C@H]3c3ccccc3)CC2)c1=O [Example 86, (3R,4R)-4-[4-[[5-amino-4-(4-fluorophenoxy)-6-oxo-pyrimidin-1-yl]methyl]-4-hydroxy-piperidine-1-carbonyl]-3-phenyl-N-thiazol-2-yl-piperidine-1-carboxamide] | 58 | 838 |  |
| Cc1cc(C(=O)N2CC[C@@H](C(=O)N3CCC(O)(Cn4cnc(Oc5ccc(F)cc5)c(N)c4=O)CC3)[C@H](c3ccccc3)C2)ccn1 [Example 91, 5-amino-6-(4-fluorophenoxy)-3-[[4-hydroxy-1-[(3R,4R)-1-(2-methylpyridine-4-carbonyl)-3-phenyl-piperidine-4-carbonyl]4-piperidyl]methyl]pyrimidin-4-one] | 13 | 76 |  |
| Cc1cncc(C(=O)N2CC[C@@H](C(=O)N3CCC(O)(Cn4cnc(Oc5ccc(F)cc5)c(N)c4=O)CC3)[C@H](c3ccccc3)C2)c1 [Example 92, 5-amino-6-(4-fluorophenoxy)-3-({4-hydroxy-1-[(3R,4R)-1-(5-methylpyridine-3-carbonyl)-3-phenylpiperidine-4-carbonyl]piperidin-4-yl}methyl)pyrimidin-4(3H)-one] | 4.9 | 45.7 |  |
| Cc1cccc(C(=O)N2CC[C@@H](C(=O)N3CCC(O)(Cn4cnc(Oc5ccc(F)cc5)c(N)c4=O)CC3)[C@H](c3ccccc3)C2)n1 [Example 93] | 51 | 86.4 |  |
| Cn1c(C(=O)N2CC[C@@H](C(=O)N3CCC(O)(Cn4cnc(Oc5ccc(F)cc5)c(N)c4=O)CC3)[C@H](c3ccccc3)C2)cnc1Br [Example 95, 5-amino-3-({1-[(3R,4R)-1-(2-bromo-1-methyl-11H-imidazole-5-carbonyl)-3-phenylpiperidine-4-carbonyl]-4-hydroxypiperidin-4-yl}methyl)-6-(4-fluorophenoxy)pyrimidin-4(3H)-one] | 21 | 27 |  |
| Cc1cc(C(=O)N2CC[C@@H](C(=O)N3CCC(O)(Cn4cnc(Oc5ccc(F)cc5)c(N)c4=O)CC3)[C@H](c3ccccc3)C2)cc(C)n1 [Example 97, 5-amino-3-({1-[(3R,4R)-1-(2,6-dimethylpyridine-4-carbonyl)-3-phenylpiperidine-4-carbonyl]-4-hydroxypiperidin-4-yl}methyl)-6-(4-fluorophenoxy)pyrimidin-4(3H)-one] | 9.8 | 42.7 |  |

The next lines start with results.

| Ki (USP7) [nM] | SMILES | IC50 ([1]; Homo sapiens, Z-138) [nM] | IC50 [1] [nM] |
| --- | --- | --- | --- |
| 4 | Cc1ccc(-c2sc(C(=O)N3CC[C@@H](C(=O)N4CCC(O)(Cn5cnc(Oc6ccc(F)cc6)c(N)c5=O)CC4)[C@H](c4ccccc4)C3)c3c2OCCO3)cn1 [Example 68, 5-amino-6-(4-fluorophenoxy)-3-[(4-hydroxy-1-{(3R,4R)-1-[7-(6-methylpyridin-3-yl)-2,3-dihydrothieno[3,4-b][1,4]dioxine-5-carbonyl]-3-phenylpiperidine-4-carbonyl]piperidin-4-yl)methyl]pyrimidin-4(3H)-one] | 6.67 |  |
| 63 | CCOC(=O)C(c1ccccc1)N1CC[C@@H](C(=O)N2CCC(O)(Cn3cnc(Oc4ccc(F)cc4)c(N)c3=O)CC2)[C@H](c2ccccc2)C1 (some centres unmarked) [Example 70] | 34 |  |
| 37 | Nc1c(Oc2ccc(F)cc2)ncn(C[C@@]2(O)CCN(C(=O)[C@@H]3CCN(C(=O)Nc4ccccc4)C[C@H]3c3ccccc3)CC2(F)F)c1=O [Example 77] | 13 |  |
| 58 | CN(C(=O)N1CC[C@@H](C(=O)N2CCC(O)(Cn3cnc(Oc4ccc(F)cc4)c(N)c3=O)CC2)[C@H](c2ccccc2)C1)c1ccccc1 [Example 78, (3R,4R)-4-[4-[[5-amino-4-(4-fluorophenoxy)-6-oxo-pyrimidin-1-yl]methyl]-4-hydroxy-piperidine-1-carbonyl]-N-methyl-N,3-diphenyl-piperidine-1-carboxamide] | 15 |  |
| 19 | COc1ccc(NC(=O)N2CC[C@@H](C(=O)N3CCC(O)(Cn4cnc(Oc5ccc(F)cc5)c(N)c4=O)CC3)[C@H](c3ccccc3)C2)cc1 [Example 80] | 6.2 |  |
| 44 | Nc1c(Oc2ccc(F)cc2)ncn(CC2(O)CCN(C(=O)[C@@H]3CCN(C(=O)Nc4cccc(C(F)(F)F)c4)C[C@H]3c3ccccc3)CC2)c1=O [Example 81, (3R,4R)-4-(4-{15-amino-4-(4-fluorophenoxy)-6-oxopyrimidin-[(6H)-yl]methyl}-4-hydroxypiperidine-1-carbonyl)-3-phenyl-N-[3-(trifluoromethyl)phenyl]piperidine-1-carboxamide] | 5.1 |  |
| 21 | Nc1c(Oc2ccc(F)cc2)ncn(CC2(O)CCN(C(=O)[C@@H]3CCN(C(=O)Nc4ccc(F)cc4)C[C@H]3c3ccccc3)CC2)c1=O [Example 84, (3R,4R)-4-[4-[[5-amino-4-(4-fluorophenoxy)-6-oxo-pyrimidin-1-yl]methyl]-4-hydroxy-piperidine-1-carbonyl]-N-(4-fluorophenyl)-3-phenyl-piperidine-1-carboxamide] | 18 |  |
| 9.9 | Cc1ccc(-c2cccc(NC(=O)N3CC[C@@H](C(=O)N4CCC(O)(Cn5cnc(Oc6ccc(F)cc6)c(N)c5=O)CC4)[C@H](c4ccccc4)C3)c2)cn1 [Example 85, (3R,4R)-4-[4-[[5-amino-4-(4-fluorophenoxy)-6-oxo-pyrimidin-1-yl]methyl]-4-hydroxy-piperidine-1-carbonyl]-N-[3-(6-methyl-3-pyridyl)phenyl]-3-phenyl-piperidine-1-carboxamide] | 34 |  |
| 88 | Nc1c(Oc2ccc(F)cc2)ncn(CC2(O)CCN(C(=O)[C@@H]3CCN(C(=O)Nc4nc5ccccc5s4)C[C@H]3c3ccccc3)CC2)c1=O [Example 87, (3R,4R)-4-[4-[[5-amino-4-(4-fluorophenoxy)-6-oxo-pyrimidin-1-yl]methyl]-4-hydroxy-piperidine-1-carbonyl]-N-(1,3-benzothiazol-2-yl)-3-phenyl-piperidine-1-carboxamide] | 45 |  |
| 20 | Nc1c(Oc2ccc(F)cc2)ncn(CC2(O)CCN(C(=O)[C@@H]3CCN(C(=O)Nc4ccccc4F)C[C@H]3c3ccccc3)CC2)c1=O [Example 89] | 26 |  |
| 30 | Cc1ccnc(C(=O)N2CC[C@@H](C(=O)N3CCC(O)(Cn4cnc(Oc5ccc(F)cc5)c(N)c4=O)CC3)[C@H](c3ccccc3)C2)c1 [Example 94, 5-amino-6-(4-fluorophenoxy)-3-[[4-hydroxy-1-[(3R,4R)-1-(4-methylpyridine-2-carbonyl)-3-phenyl-piperidine-4-carbonyl]-4-piperidyl]methyl]pyrimidin-4-one] | 49 |  |
| 7.21 | Cc1ccc(-c2ncc(C(=O)N3CC[C@@H](C(=O)N4CCC(O)(Cn5cnc(Oc6ccc(F)cc6)c(N)c5=O)CC4)[C@H](c4ccccc4)C3)n2C)cn1 [Example 96, 5-amino-6-(4-fluorophenoxy)-3-[(4-hydroxy-1-{(3R,4R)-1-[1-methyl-2-(6-methylpyridin-3-yl)-1H-imidazole-5-carbonyl]-3-phenylpiperidine-4-carbonyl}piperidin-4-yl)methyl]pyrimidin-4(3H)-one] | 27.3 |  |
